Reference: US20150297591A1, “METHODS OF TREATING PULMONARY FIBROSIS” (Duke University, priority 2012, published 2015)

How the values were obtained:
[1] = following RT; by decreasing free radical injury; cited from earlier work
C57BL/6 mice = test: Radiation fibrosis model in C57BL/6 mice (15 Gy thoracic RT), SMA immunostaining of lung; type: in vivo, mouse; conditions: C57BL/6 lungs 20 wks post-15 Gy; 77427 IP twice weekly for 20 weeks; vs RT+PBS
From the text: Our first investigation tested the hypothesis that GRP contributes to RTP using an established mouse model of radiation fibrosis in C57BL/6 mice, which are prone to fibrosis. Following exposure to high-dose thoracic radiation (15 Gy), we treated mice intraperitoneally (IP) with either PBS or GRP blockade by using small molecule 77427. We quantified results of immunohistochemistry by using quantitative image analysis with ImageJ to determine whether GRP contributes to RT-induced inflammatory responses and/or fibrosis, specifically including assessment of active TGFβsignaling^7. As noted above, the first investigation (FIGS. 1 and 2) tested the hypothesis that GRP contributes to RTP using an established mouse model of radiation fibrosis in C57BL/6 mice. Following exposure to high-dose thoracic radiation (15 Gy), we treated mice intraperitoneally (IP) with either PBS or GRP blockade by using small molecule 77427. We quantified results of immunohistochemistry by using quantitative image analysis with ImageJ to determine whether GRP contributes to RT-induced inflammatory responses and/or fibrosis, specifically including assessment of active TGFβ signaling^7. In FIG. 1B, note that there is extensive immunostaining for myofibroblasts in the alveolar walls (arrows) in mice exposed to RT 20 weeks earlier and given only PBS. […]

C57L/J (L/J) mice [2] = test: C57L/J model of radiation pneumonitis (15 Gy thoracic RT), SMA immunostaining of lung; type: in vivo, mouse
Protocol: (§1) In a second series of experiments, C57L/J (L/J) mice were treated with 15 Gy of thoracic radiation. L/J mice are exquisitely sensitive to even low doses of RT, and rapidly develop both pneumonitis and fibrosis. Groups of L/J mice were injected intraperitoneally with PBS, 77427 or 2A11, given as a single dose (20 nmole per mouse) at 24 hours post-RT.
It was recently observed by Zelcko Vujaskovic et al that C57L/J (L/J) mice have radiation sensitivity very similar to humans^19, making the L/J model of radiation-pneumonitis most clinically relevant. Using this L/J model, we treated mice IP with a single dose of 77427 (10 nmol per mouse) given IP at 24 hours post-RT. At 15 weeks later, we observed early evidence of pulmonary fibrosis that was abrogated by the single dose of 77427 (FIG. 3). […] Therefore, we have included a claim that GRP blockade may be a treatment to prevent, arrest, or reverse pulmonary arteriopathy leading to pulmonary hypertension, another serious and poorly understood medical condition that is now treated symptomatically.

C57L/J (L/J) mice [3] = test: C57L/J model, Masson's trichrome staining for collagen in alveoli; type: in vivo, mouse
Protocol: as §1
In normal, Sham-irradiated lung (FIG. 5A), there are only traces of green collagen staining in the alveolar walls (arrows). In contrast, 15 weeks post-RT, early collagen deposition is widespread throughout the alveolar walls.
We quantified the area of green trichrome staining in the trichrome-stained slides (including those shown in FIG. 5), using ImageJ, normalized for the total area of alveolar tissue in the same photomicrograph, similar to the analysis used for FIG. 4.

C57L/J (L/J) mice [4] = test: C57L/J model, hydroxyproline assay on whole mouse lungs (total lung collagen); type: in vivo; conditions: 15 weeks post-RT, single dose, initial assay results
Protocol: as §1
As a second measure of pulmonary collagen levels, we carried out the hydroxyproline assay on whole mouse lungs from the same groups of mice as given in the legend to FIG. 3. There is a trend toward increased collagen at 15 weeks post-RT, which is confounded to some extent by the presence of collagen in connective tissue of blood vessels and airways in normal lung. Additional samples are being assayed in the near future.

C57L/J (L/J) mice [5] = test: C57L/J model, toluidine blue staining for mast cells in lung sections; type: in vivo, mouse; conditions: 15 weeks post-RT, single dose 24 h post-RT
Protocol: as §1
There were no detectable subpleural or interstitial mast cells in any sham controls, nor in any lungs at 10 weeks post-RT. At 15 weeks post-RT there was a dramatic accumulation of mast cells subpleurally (black arrows) and in the alveolar interstitium (red arrows). These were most abundant in mice treated with RT+PBS (FIG. 8A), with a reduction by over 50% in mice give 77427 (FIG. 8B). Total numbers of subpleural mast cells have been quantified for all of the lung tissue on each slide and will be normalized for the length of pleura present.

Row | SMILES | severity of RTP [1] | interstitial SMA staining (myofibroblasts in alveolar walls), early indicator of radiation fibrosis (C57BL/6 mice) | SMA+ myofibroblasts in small distal blood vessels (C57L/J (L/J) mice [2]; C57L/J lung 15 wks post-15 Gy, single dose IP 24 h post-RT) | early evidence of pulmonary fibrosis (SMA+ cells) (C57L/J (L/J) mice [2]; C57L/J, 15 weeks post-RT, single dose 10 nmol per mouse IP at 24 hours post-RT) | trichrome (collagen) levels in the alveoli (C57L/J (L/J) mice [3]; C57L/J lung 15 weeks post-15 Gy, single dose 24 h post-RT) | alveolar collagen deposition (quantified trichrome area normalized for alveolar tissue area) (C57L/J (L/J) mice [3]; C57L/J, 15 weeks post-high dose RT, RT+PBS vs RT+77427 P<0.001) | hydroxyproline content of whole lung (total lung collagen) (C57L/J (L/J) mice [4]) | reduction of mast cells (subpleural and alveolar interstitium) versus RT+PBS (C57L/J (L/J) mice [5]) | subpleural mast cells (toluidine blue staining) (C57L/J (L/J) mice [5])
1 | CCN1C=CC=C/C1=C1/C2=NC(=C(c3cccc[n+]3CC)C3=NC(=C(c4cccc[n+]4CC)c4ccc([n-]4)C(c4cccc[n+]4CC)=C4C=CC1=N4)C=C3)C=C2.[Cl-].[Cl-].[Cl-].[Cl-].[Cl-].[Mn+3] [AEOL10113] | can reduce the severity of RTP |  |  |  |  |  |  |  | 
2 | Nc1nc(Cl)cc(NCCO)n1 [compound 77427] |  | abrogates this interstitial SMA staining | greatly reduces SMA+ myofibroblasts in small distal blood vessels | abrogated | reduced trichrome levels in the alveoli to near baseline levels | abrogates alveolar collagen deposition | do not have elevated hydroxyproline content | over 50% | reduced
